Assay: xn = mol fraction of the nth substance listed

c1cnccn1 [pyrazine] + O=C=O
Fluid (supercritical or subcritical phases), Linear displacement technique
Conditions	mass density [kg/m3]
321.55 K, 14590 kPa, x1 = 0.177	866
322.35 K, 7410 kPa, x1 = 0.495	980
322.35 K, 10310 kPa, x1 = 0.495	990
322.35 K, 13000 kPa, x1 = 0.495	963
323.35 K, 10030 kPa, x1 = 0.074	825
323.35 K, 10240 kPa, x1 = 0.074	835
323.35 K, 11900 kPa, x1 = 0.074	876
324.65 K, 9340 kPa, x1 = 0.015	394
324.65 K, 9620 kPa, x1 = 0.015	408
324.65 K, 9830 kPa, x1 = 0.015	423
324.65 K, 10970 kPa, x1 = 0.015	576
324.65 K, 11380 kPa, x1 = 0.015	611
324.65 K, 11620 kPa, x1 = 0.015	627
324.65 K, 11760 kPa, x1 = 0.015	640
325.85 K, 10170 kPa, x1 = 0.116	739
325.85 K, 13140 kPa, x1 = 0.116	767
326.15 K, 9900 kPa, x1 = 0.019	460
326.15 K, 10520 kPa, x1 = 0.019	580
326.15 K, 11140 kPa, x1 = 0.019	656
326.15 K, 11520 kPa, x1 = 0.019	688
326.15 K, 12310 kPa, x1 = 0.019	729
326.65 K, 8860 kPa, x1 = 0.397	1023
326.65 K, 11070 kPa, x1 = 0.397	1027
326.65 K, 14100 kPa, x1 = 0.397	1036
327.25 K, 10170 kPa, x1 = 0.146	980
327.25 K, 15900 kPa, x1 = 0.146	990
328.15 K, 11830 kPa, x1 = 0.308	980
328.15 K, 13760 kPa, x1 = 0.308	990
328.15 K, 15340 kPa, x1 = 0.308	997
332.95 K, 18030 kPa, x1 = 0.224	879
334.05 K, 11550 kPa, x1 = 0.177	803
334.05 K, 11900 kPa, x1 = 0.177	809
334.05 K, 15590 kPa, x1 = 0.177	831
334.75 K, 10340 kPa, x1 = 0.495	980
334.75 K, 13550 kPa, x1 = 0.495	987
334.75 K, 19410 kPa, x1 = 0.495	1002
337.05 K, 11660 kPa, x1 = 0.146	760
337.05 K, 15140 kPa, x1 = 0.146	792
337.85 K, 12170 kPa, x1 = 0.09	738
337.85 K, 12590 kPa, x1 = 0.09	752
337.85 K, 15900 kPa, x1 = 0.09	815
338.45 K, 11520 kPa, x1 = 0.019	475
338.45 K, 11970 kPa, x1 = 0.019	512
338.45 K, 12170 kPa, x1 = 0.019	526
338.45 K, 12590 kPa, x1 = 0.019	565
339.45 K, 12590 kPa, x1 = 0.074	708

linear displacement
Conditions	mass density [kg/m3]
321.55 K, Liquid, x1 = 0.177	834
322.35 K, Liquid, x1 = 0.495	975
323.35 K, Liquid, x1 = 0.074	810
324.65 K, Gas, x1 = 0.015	382
325.85 K, Liquid, x1 = 0.116	734
326.15 K, Gas, x1 = 0.019	442
326.65 K, Liquid, x1 = 0.397	1017
327.25 K, Liquid, x1 = 0.146	790
328.15 K, Liquid, x1 = 0.308	970
332.95 K, Liquid, x1 = 0.224	842
334.05 K, Liquid, x1 = 0.177	795
334.75 K, Liquid, x1 = 0.495	972
337.05 K, Liquid, x1 = 0.146	753
337.85 K, Liquid, x1 = 0.09	727
338.45 K, Gas, x1 = 0.019	431

From the NIST ThermoML archive (doi:10.1021/je0601457)
